{"source": "ChEMBL document CHEMBL1201862", "about": "“PubChem BioAssay data set” (2004)", "key": {"[1]": {"biological_target": "T1, Carboxy-terminal domain RNA polymerase II polypeptide A small phosphatase 1 (Homo sapiens, UniProt Q9GZU7)", "T1 sequence (Q9GZU7 whole entry)": "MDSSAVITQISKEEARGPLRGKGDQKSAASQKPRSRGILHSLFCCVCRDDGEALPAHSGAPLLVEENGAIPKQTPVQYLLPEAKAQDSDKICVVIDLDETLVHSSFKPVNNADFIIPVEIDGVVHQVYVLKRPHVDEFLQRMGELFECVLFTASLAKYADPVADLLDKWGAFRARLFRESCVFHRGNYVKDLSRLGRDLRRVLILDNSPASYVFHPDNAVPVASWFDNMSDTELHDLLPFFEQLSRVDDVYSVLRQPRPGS", "assay": "CTDSP1 inhibitors, concentration-response, biochemical, absorbance readout, ultra-high-throughput screen actives (AID 540297)", "assay_type": "functional"}, "[2]": {"biological_target": "T2, Leucine aminopeptidase (Plasmodium falciparum 3D7, UniProt Q8IL11)", "T2 sequence (Q8IL11 whole entry)": "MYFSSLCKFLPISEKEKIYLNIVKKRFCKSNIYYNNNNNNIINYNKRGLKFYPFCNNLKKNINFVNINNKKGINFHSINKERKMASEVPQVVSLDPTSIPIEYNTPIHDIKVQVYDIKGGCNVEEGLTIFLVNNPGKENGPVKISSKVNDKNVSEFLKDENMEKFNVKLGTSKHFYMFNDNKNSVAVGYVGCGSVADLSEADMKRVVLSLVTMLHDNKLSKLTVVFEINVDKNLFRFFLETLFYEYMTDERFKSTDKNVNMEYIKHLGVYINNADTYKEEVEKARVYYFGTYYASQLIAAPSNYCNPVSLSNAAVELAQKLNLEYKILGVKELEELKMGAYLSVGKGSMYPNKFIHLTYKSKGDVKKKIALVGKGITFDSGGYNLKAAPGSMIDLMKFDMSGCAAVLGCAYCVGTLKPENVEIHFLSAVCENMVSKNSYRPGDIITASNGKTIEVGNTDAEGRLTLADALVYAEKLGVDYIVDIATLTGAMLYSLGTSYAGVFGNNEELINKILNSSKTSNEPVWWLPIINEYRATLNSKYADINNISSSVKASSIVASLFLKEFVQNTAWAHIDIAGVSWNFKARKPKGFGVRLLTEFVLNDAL", "assay": "P. falciparum M17LAP inhibitors, primary screen, biochemical, fluorogenic H-Leu-NHMec substrate, 1536-well (AID 1619)", "assay_type": "functional"}, "[3]": {"biological_target": "T3, Heat shock factor protein 1 (Mus musculus, UniProt P38532)", "T3 sequence (P38532 whole entry)": "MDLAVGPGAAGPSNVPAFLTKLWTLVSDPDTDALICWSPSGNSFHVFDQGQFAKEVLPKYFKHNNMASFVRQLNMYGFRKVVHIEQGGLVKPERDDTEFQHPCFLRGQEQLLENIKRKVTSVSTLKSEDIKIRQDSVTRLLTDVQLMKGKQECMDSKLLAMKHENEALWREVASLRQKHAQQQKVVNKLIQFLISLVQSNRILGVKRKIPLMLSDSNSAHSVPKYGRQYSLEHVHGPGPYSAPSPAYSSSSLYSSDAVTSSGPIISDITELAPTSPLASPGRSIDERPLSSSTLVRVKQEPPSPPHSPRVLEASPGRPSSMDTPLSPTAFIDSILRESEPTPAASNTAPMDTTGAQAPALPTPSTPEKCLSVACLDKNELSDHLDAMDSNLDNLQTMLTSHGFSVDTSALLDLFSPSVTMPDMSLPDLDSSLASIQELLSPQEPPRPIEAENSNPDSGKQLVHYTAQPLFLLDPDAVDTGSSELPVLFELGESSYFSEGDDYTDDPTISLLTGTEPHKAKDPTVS", "assay": "enhancement of HSF1-driven luciferase signal – cell-based, NIH3T3, luminescence, dose retest, confirmation (AID 435004);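 also: stress induced by proteasome inhibitor MG132 added 30 min after compound; actives raise luminescence as potentiators of the MG132 stress response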", "assay_type": "functional"}, "[4]": {"biological_target": "FAD-linked sulfhydryl oxidase ALR (Homo sapiens, UniProt P55789)", "sequence (P55789 whole entry)": "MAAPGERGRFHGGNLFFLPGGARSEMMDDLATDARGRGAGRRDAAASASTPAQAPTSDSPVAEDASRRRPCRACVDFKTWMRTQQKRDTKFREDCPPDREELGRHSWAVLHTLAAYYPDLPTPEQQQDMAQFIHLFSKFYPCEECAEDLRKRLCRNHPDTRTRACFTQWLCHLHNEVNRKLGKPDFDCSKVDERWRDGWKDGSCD", "assay": "ALR-catalysed DTT oxidation blockers – biochemical, H2O2 detection, luminescence, cherry-pick, dose response (AID 493248)"}, "[5]": {"biological_target": "Nonstructural protein 1 (Influenza A virus, UniProt Q194T2)", "sequence (Q194T2 whole entry)": "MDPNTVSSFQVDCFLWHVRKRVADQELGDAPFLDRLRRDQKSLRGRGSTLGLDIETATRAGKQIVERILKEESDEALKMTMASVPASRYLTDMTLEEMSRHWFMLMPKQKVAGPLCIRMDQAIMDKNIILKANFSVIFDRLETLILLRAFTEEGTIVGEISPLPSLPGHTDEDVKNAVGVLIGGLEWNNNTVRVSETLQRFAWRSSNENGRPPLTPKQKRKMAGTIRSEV", "assay_type": "functional, Influenza A virus (A/California/07/2009(H1N1))"}, "[6]": {"biological_target": "Eukaryotic translation initiation factor 4E (Mus musculus, UniProt P63073)", "sequence (P63073 whole entry)": "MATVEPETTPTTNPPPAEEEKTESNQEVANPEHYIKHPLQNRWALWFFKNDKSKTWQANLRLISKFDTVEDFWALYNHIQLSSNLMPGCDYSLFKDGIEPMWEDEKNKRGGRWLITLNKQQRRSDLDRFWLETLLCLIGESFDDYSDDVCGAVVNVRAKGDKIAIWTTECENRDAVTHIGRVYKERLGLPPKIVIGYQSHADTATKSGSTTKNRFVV", "assay": "blockers of eIF4G binding by eIF4E – biochemical, TR-FRET, dose response (AID 855);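 also: potency for disrupting eIF4E binding to eIF4GI seen as loss of FRET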", "assay_type": "functional"}, "[7]": {"biological_target": "T4, Short transient receptor potential channel 4 (Mus musculus, UniProt Q9QUQ5)", "T4 sequence (Q9QUQ5 whole entry)": "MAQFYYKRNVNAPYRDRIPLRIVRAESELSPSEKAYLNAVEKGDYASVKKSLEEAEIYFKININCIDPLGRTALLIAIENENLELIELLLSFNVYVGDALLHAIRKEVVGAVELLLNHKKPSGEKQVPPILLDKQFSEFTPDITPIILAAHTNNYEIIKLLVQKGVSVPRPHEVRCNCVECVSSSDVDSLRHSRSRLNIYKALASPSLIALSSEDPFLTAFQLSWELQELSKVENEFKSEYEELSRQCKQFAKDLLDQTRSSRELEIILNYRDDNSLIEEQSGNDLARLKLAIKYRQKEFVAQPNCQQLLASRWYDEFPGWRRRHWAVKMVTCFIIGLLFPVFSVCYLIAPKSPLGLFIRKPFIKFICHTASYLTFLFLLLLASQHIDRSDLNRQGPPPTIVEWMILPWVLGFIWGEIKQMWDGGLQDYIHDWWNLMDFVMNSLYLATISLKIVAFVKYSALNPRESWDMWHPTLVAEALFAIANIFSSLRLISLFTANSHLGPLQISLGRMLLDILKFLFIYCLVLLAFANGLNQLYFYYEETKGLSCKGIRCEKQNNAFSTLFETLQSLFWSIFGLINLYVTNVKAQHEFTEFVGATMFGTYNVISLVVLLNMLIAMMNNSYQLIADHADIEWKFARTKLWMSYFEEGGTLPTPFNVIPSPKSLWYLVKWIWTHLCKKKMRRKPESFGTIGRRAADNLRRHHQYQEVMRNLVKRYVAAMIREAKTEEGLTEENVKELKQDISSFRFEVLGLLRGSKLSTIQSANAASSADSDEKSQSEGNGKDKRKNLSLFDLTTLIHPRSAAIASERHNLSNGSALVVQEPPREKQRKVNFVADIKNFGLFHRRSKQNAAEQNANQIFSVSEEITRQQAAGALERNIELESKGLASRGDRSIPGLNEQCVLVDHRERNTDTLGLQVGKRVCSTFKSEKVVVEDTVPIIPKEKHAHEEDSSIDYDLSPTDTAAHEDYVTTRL", "assay": "calcium entry via TRPC4 opening agents – cell-based, HEK293 TRPC4/mu-opioid, Fluo-4 calcium, dose response (AID 434937)", "assay_type": "functional"}, "[8]": {"biological_target": "Cytochrome P450 2C9 (Homo sapiens, UniProt P11712)", "sequence (P11712 whole entry)": "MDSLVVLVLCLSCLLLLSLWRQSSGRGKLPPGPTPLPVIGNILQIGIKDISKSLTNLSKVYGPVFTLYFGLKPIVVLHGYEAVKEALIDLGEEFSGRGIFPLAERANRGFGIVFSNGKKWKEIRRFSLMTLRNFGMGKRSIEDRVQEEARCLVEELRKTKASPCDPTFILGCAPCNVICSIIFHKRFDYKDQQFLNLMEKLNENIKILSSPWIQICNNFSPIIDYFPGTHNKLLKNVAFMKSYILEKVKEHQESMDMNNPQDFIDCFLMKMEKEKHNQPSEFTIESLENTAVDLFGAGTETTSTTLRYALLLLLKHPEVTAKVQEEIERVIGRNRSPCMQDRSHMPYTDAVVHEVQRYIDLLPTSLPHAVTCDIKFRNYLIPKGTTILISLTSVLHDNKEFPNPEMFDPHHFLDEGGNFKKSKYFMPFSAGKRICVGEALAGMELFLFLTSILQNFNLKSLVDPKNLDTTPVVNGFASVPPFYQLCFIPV"}, "[9]": {"biological_target": "Cytochrome P450 3A4 (Homo sapiens, UniProt P08684)", "sequence (P08684 whole entry)": "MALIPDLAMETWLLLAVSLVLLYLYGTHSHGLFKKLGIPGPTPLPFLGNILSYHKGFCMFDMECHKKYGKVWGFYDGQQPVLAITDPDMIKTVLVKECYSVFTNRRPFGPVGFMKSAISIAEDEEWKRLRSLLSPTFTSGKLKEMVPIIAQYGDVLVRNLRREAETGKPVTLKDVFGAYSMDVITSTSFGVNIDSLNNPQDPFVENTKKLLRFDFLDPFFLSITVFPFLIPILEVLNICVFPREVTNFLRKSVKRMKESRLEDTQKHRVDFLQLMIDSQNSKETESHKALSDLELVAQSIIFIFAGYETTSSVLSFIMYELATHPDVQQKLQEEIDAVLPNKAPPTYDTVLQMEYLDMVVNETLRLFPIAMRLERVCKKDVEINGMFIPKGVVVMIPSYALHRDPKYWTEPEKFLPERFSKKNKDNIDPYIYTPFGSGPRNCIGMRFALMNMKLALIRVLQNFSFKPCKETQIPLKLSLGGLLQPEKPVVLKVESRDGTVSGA"}, "[10]": {"biological_target": "Prothrombin (Homo sapiens, UniProt P00734)", "assay": "Thrombin 1536 HTS Dose Response Confirmation. [Related pubchem assays: 1046 (Thrombin 1536 HTS; hits were confirmed in this assay)]", "assay_type": "functional"}, "[11]": {"biological_target": "Cytochrome P450 2C19 (Homo sapiens, UniProt P33261)", "sequence (P33261 whole entry)": "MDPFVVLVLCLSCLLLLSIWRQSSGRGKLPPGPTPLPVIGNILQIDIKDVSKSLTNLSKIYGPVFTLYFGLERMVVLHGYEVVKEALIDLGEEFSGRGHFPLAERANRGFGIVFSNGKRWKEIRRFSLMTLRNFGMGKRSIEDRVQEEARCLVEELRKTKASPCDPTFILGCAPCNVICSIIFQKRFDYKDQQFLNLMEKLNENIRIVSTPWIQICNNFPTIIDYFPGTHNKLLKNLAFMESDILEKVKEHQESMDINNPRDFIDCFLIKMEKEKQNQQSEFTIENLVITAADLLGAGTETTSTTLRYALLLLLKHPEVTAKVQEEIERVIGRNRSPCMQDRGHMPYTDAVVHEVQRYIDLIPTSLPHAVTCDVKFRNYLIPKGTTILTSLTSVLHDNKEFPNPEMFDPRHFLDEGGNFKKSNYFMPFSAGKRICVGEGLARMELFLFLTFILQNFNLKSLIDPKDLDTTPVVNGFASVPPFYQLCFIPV", "assay": "Cytochrome panel assay with activity outcomes. Panel member name: p450-cyp2c19 Compounds with AC50 equal or less than 10 uM are considered active", "assay_type": "functional", "conditions": "read-out: AC50"}}, "note": "Calls of active or inactive are those of the source."}
{"smiles": "Cc1ccc2nc(Cl)c(C3CC(c4cccs4)=NN3C(=O)CCCC(=O)O)cc2c1", "note": "(centres undefined)", "values": [{"measurement": "IC50", "setting": "[1]", "value": "11.1 µM (active)"}]}
{"smiles": "CC(C)CC(=O)n1sc(NC(=O)c2ccccc2)nc1=O", "values": [{"measurement": "IC50", "setting": "[2]", "value": "43.9 µM (active)"}]}
{"smiles": "CCCCN(CCCNC(=O)C1CCN(S(=O)(=O)CC)CC1)c1ccccc1", "values": [{"measurement": "EC50", "setting": "[3]", "value": "> 260 µM (inactive)"}, {"measurement": "AC50", "setting": "[4]", "value": "0.131 µM (active)"}]}
{"smiles": "COc1ccc(Nc2ccc(S(=O)(=O)N3CCCCCC3)cc2[N+](=O)[O-])cc1", "values": [{"measurement": "IC50", "setting": "[5]", "value": "45.6 µM (active)"}]}
{"smiles": "CCN(CC)CCNS(=O)(=O)c1ccc(C(=O)NN)cc1", "values": [{"measurement": "AC50", "setting": "[4]", "value": "3.39 µM (active)"}]}
{"smiles": "CCCN1CCC(=NNC(=O)c2ccc(Br)o2)CC1", "values": [{"measurement": "IC50", "setting": "[6]", "value": "> 64 µM (inactive)"}]}
{"smiles": "CCCN(CCC(=O)Nc1cc(OC)cc(OC)c1)CC1CC1", "values": [{"measurement": "EC50", "setting": "[7]", "value": "1.33 µM (active)"}]}
{"smiles": "CCCc1c(O)nc(SCCN(CC)CC)nc1O", "values": [{"measurement": "EC50", "setting": "[7]", "value": "1.68 µM (active)"}]}
{"smiles": "CN(C)c1oc(-c2ccccc2)nc1C#N", "values": [{"measurement": "AC50", "setting": "[8]", "value": "inconclusive"}]}
{"smiles": "NS(=O)(=O)c1cc2c(cc1Cl)N[C@@H](CC1CCCC1)NS2(=O)=O", "values": [{"measurement": "AC50", "setting": "[8]", "value": "inconclusive"}]}
{"smiles": "COc1ccc(-c2nc3cnc(N4CCNCC4)nc3n(Cc3ccc(F)cc3)c2=O)cc1", "values": [{"measurement": "AC50", "setting": "[9]", "value": "15.8 µM (inconclusive)"}, {"measurement": "AC50", "setting": "[8]", "value": "inconclusive"}]}
{"smiles": "CC1=C(C(=O)OCc2ccccc2)C(c2ccc(Cl)cc2Cl)NC(=O)N1CCCCCC(=O)O", "note": "(centres undefined)", "values": [{"measurement": "IC50", "setting": "[2]", "value": "20.4 µM (active)"}]}
{"smiles": "Cc1cc(Br)ccc1OCCn1ccnc1", "values": [{"measurement": "EC50", "setting": "[7]", "value": "3.35 µM (active)"}]}
{"smiles": "Cc1ccc(S(=O)(=O)NC(=O)N2CCC(C)CC2)cc1", "values": [{"measurement": "IC50", "setting": "[10]", "value": "> 50 µM (not active)"}]}
{"smiles": "N/C(=N\\S(=O)(=O)c1ccccc1)c1ccc([N+](=O)[O-])cc1", "values": [{"measurement": "IC50", "setting": "[10]", "value": "> 50 µM (not active)"}]}
{"smiles": "O=C(NCCc1cccs1)C1CC(c2c(Cl)cccc2Cl)=NO1", "note": "(centres undefined)", "values": [{"measurement": "AC50", "setting": "[11]", "value": "0.282 µM (inconclusive)"}, {"measurement": "AC50", "setting": "[8]", "value": "inconclusive"}]}
